Reference: US12662479B2 (Foghorn Therapeutics Inc., priority 2020, dated 2026)

Columns and labels:
HiBit-BRM fusion protein = target: T1, HiBit-BRM fusion protein (Homo sapiens, UniProt P51531); assay: HiBiT-BRM cell-based degradation assay (Nano-Glo HiBiT Lytic Detection, 24 h); conditions: HeLa cells expressing HiBiT-BRM; for DC50: read-out: BRM HiBit Degradation IC50; for BRM HiBit Degradation Maximum measured: top dose 30 μM
T1 construct: expressed in transfected cells
In short: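 Residual HiBiT-BRM in a stable HeLa line was measured by Nano-Glo lytic luminescence after 24 h compound exposure (top final dose 30 μM, 3-fold, 10 points, duplicate). Values are % degradation, scaled between DMSO-treated cells and cells given 2 μM of a known BRM/BRG1 degrader.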

[1] = target: T2, HiBit-BRG1 fusion protein (Homo sapiens, UniProt P51532); assay: HiBiT-BRG1 cell-based degradation assay (Nano-Glo HiBiT Lytic Detection, 24 h); conditions: HeLa cells expressing HiBit-BRG1 and LgBit; for DC50: read-out: BRG1 HiBit Degradation IC50; for Dmax: HeLa, top dose 30 μM, read-out: BRG1 HiBit Degradation Maximum measured
T2 construct: expressed in transfected cells
In short: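 Degradation is scaled from DMSO-treated cells (0%) to cells given 2 μM of a known BRM/BRG1 degrader (100%). HeLa cells stably carrying HiBiT-BRG1 plus LgBiT (5000/well) were lysed with Nano-Glo HiBiT detection reagent, shaken 10 min at RT, and luminescence read.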

T1 sequence (P51531 whole entry, the tested form may be a part): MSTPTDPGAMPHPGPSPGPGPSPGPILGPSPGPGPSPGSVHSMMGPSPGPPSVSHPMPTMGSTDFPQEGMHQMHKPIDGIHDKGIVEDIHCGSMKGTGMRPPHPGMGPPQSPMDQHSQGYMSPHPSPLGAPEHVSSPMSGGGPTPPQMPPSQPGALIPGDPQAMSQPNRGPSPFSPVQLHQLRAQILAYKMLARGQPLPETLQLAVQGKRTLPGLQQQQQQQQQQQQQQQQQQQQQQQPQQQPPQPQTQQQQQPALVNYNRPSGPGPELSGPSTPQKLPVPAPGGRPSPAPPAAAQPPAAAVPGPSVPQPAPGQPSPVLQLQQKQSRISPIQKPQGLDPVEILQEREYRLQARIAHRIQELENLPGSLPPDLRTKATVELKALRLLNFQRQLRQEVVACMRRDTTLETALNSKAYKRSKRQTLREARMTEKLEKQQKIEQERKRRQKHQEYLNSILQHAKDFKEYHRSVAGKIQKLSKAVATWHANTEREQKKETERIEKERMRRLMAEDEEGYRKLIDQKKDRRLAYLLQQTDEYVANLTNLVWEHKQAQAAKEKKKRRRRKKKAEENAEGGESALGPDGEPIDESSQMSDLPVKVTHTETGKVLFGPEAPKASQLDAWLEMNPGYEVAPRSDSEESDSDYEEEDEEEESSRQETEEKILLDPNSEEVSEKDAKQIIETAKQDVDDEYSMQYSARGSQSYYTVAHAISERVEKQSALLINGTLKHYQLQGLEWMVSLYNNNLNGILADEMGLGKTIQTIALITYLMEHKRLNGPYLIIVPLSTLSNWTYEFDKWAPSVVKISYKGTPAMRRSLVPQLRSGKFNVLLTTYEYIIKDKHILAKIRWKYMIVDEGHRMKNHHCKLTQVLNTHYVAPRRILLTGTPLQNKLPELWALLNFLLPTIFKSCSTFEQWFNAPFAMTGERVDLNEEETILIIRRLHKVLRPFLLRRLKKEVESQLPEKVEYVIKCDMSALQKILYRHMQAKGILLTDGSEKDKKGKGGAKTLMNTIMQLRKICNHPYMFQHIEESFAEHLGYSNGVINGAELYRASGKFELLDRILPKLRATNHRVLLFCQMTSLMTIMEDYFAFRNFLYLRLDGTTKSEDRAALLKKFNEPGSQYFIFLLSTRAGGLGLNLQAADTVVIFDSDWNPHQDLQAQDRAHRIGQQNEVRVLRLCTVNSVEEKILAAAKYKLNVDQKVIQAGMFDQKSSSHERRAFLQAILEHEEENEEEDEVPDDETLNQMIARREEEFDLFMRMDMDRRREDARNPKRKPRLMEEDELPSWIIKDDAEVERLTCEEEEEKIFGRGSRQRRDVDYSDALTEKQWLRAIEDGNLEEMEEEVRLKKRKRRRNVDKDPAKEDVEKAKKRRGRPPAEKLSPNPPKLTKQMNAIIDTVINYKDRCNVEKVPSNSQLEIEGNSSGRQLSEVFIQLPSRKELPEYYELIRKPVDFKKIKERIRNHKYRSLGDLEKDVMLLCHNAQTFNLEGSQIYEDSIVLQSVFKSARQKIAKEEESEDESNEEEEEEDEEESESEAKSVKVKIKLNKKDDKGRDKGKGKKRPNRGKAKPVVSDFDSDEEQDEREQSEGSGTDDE
T2 sequence (P51532 whole entry, the tested form may be a part): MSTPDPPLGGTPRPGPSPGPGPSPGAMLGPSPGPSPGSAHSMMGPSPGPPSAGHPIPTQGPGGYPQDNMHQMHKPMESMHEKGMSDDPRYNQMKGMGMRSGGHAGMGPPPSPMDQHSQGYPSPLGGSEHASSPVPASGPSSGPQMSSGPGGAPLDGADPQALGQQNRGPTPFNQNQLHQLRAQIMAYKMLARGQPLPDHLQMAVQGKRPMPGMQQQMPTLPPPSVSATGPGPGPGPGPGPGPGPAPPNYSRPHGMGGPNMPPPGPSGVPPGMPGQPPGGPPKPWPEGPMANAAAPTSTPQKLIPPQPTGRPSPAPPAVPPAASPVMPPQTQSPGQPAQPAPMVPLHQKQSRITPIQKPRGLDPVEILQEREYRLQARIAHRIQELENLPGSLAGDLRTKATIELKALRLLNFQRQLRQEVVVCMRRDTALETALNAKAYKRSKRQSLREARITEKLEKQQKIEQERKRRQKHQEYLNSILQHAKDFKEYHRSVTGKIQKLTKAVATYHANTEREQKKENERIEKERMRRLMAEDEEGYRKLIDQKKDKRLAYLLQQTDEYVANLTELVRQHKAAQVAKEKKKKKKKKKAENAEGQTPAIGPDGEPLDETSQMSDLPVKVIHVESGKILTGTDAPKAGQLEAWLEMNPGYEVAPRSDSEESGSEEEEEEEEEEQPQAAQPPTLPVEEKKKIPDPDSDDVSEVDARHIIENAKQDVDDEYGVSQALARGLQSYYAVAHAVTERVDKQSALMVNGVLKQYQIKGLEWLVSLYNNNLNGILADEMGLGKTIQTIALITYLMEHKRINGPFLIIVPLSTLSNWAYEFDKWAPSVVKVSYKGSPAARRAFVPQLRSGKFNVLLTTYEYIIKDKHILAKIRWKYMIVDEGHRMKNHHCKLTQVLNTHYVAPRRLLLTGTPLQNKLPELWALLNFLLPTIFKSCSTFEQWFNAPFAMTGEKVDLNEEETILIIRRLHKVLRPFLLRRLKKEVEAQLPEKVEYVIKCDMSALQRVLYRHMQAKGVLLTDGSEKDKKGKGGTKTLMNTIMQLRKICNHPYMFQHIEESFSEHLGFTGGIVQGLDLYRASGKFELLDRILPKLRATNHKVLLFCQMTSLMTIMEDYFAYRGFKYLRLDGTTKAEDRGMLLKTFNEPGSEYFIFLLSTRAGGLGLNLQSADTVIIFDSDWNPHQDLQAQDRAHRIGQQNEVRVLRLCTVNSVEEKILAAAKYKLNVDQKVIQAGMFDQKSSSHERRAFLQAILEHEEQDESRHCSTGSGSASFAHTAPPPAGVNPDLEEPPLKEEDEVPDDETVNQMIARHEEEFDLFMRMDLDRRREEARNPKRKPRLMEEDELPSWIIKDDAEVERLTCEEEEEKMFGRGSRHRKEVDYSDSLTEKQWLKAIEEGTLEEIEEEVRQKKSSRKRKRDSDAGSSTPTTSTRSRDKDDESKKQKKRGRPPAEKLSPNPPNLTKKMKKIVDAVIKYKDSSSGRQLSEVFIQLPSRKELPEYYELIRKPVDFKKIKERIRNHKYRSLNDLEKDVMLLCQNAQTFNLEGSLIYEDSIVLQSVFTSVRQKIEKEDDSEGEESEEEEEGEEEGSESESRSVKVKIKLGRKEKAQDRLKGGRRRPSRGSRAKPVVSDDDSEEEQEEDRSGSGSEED

| SMILES | DC50 (HiBit-BRM fusion protein) | BRM HiBit Degradation Maximum measured (HiBit-BRM fusion protein) | DC50 [1] | Dmax [1] |
| --- | --- | --- | --- | --- |
| CN(CCNC(=O)COc1ccc2c(c1)C(=O)N(C1CCC(=O)NC1=O)C2=O)CCNC(=O)C1(c2cc(-c3cccc(-c4csc(NC(=O)CNC(=O)c5ccn(S(C)(=O)=O)c5)n4)c3)ccn2)CC1 (stereo not drawn) [Compound 111, N-[2-[[4-[3-[2-[1-[2-[2-[[2-[2-(2,6-dioxo-3-piperidyl)-1,3-dioxo-isoindolin-5-yl]oxyacetyl]amino]ethyl-methylamino]ethylcarbamoyl]cyclopropyl]-4-pyridyl]phenyl]thiazol-2-yl]amino]-2-oxo-ethyl]-1-methylsulfonyl-pyrrole-3-carboxamide] | > 10 µM | C (‘C’ = Maximum degradation <50%) | > 10 µM | < 50% |
| CS(=O)(=O)n1ccc(C(=O)N[C@@H](CCOCCCC(=O)NCCNc2ccc3c(c2)C(=O)N(C2CCC(=O)NC2=O)C3=O)C(=O)Nc2nc(-c3ccccc3)cs2)c1 (stereo partly drawn) [Compound 286, (2S)-4-[3-[(2-[[2-(2,6-dioxopiperidin-3-yl)-1,3-dioxoisoindol-5-yl]amino]ethyl)carbamoyl]propoxy]-2-[(1-methanesulfonylpyrrol-3-yl)formamido]-N-(4-phenyl-1,3-thiazol-2-yl)butanamide] | > 10 µM | C (‘C’ = Maximum degradation <50%) | > 10 µM | < 50% |
| CS(=O)(=O)n1ccc(C(=O)N[C@@H](COCc2ccc(C(=O)NCCOCCOCCNC(=O)COc3cccc4c3C(=O)N(C3CCC(=O)NC3=O)C4=O)cc2)C(=O)Nc2nc(-c3ccccc3)cs2)c1 (stereo partly drawn) [Compound 196] | > 10 µM | C (‘C’ = Maximum degradation <50%) | > 10 µM | < 50% |
